In US20260184706A1, “PHENYLSULFONAMIDE DERIVATIVES, PREPARATION METHOD THEREFOR, AND PHARMACEUTICAL COMPOSITION FOR PREVENTION OR TREATMENT OF CANCER CONTAINING SAME AS ACTIVE INGREDIENT” (Korea Research Institute of Chemical Technology, priority 2022, published 2026):

Molecular target: recombinant human GCN2 protein (Homo sapiens, UniProt Q9P2K8)
Assay: General control nonderepressible 2 (GCN2) inhibitory capacity, 33P-ATP filter assay
Format: biochemical
Details: recombinant human GCN2, 70 uM [gamma-33P-ATP], 40 minutes, room temperature
Procedure: <Experimental Example 2> Evaluation of General Control Nonderepressible 2 (GCN2) Inhibitory Capacity
A recombinant human GCN2 protein was mixed with the compound in a reaction solution (20 mM Tris/HCl pH8.5, 0.2 mM EDTA, 0.1% Tween, 100 mM NaCl, 300 μM RSRSRSRSRSRSRSR, 10 mM Magnesium acetate, 70 uM [gamma-33P-ATP]) and reacted at room temperature for 40 minutes. Then, the reaction was terminated by adding phosphoric acid (0.5%) to the reaction mixture, and 10 ul of the reaction solution was dropped onto a P30 filter. The filter was washed four times in a 0.425% phosphoric acid solution for 4 minutes, then washed once more in methanol, dried, and the GCN2 activity was measured by scintillation counting. […] The compound was diluted by 1/3 from the highest concentration of 1 uM and treated with a total of 9 concentrations to evaluate the degree of inhibition.

Sequence of recombinant human GCN2 protein (Q9P2K8 whole entry): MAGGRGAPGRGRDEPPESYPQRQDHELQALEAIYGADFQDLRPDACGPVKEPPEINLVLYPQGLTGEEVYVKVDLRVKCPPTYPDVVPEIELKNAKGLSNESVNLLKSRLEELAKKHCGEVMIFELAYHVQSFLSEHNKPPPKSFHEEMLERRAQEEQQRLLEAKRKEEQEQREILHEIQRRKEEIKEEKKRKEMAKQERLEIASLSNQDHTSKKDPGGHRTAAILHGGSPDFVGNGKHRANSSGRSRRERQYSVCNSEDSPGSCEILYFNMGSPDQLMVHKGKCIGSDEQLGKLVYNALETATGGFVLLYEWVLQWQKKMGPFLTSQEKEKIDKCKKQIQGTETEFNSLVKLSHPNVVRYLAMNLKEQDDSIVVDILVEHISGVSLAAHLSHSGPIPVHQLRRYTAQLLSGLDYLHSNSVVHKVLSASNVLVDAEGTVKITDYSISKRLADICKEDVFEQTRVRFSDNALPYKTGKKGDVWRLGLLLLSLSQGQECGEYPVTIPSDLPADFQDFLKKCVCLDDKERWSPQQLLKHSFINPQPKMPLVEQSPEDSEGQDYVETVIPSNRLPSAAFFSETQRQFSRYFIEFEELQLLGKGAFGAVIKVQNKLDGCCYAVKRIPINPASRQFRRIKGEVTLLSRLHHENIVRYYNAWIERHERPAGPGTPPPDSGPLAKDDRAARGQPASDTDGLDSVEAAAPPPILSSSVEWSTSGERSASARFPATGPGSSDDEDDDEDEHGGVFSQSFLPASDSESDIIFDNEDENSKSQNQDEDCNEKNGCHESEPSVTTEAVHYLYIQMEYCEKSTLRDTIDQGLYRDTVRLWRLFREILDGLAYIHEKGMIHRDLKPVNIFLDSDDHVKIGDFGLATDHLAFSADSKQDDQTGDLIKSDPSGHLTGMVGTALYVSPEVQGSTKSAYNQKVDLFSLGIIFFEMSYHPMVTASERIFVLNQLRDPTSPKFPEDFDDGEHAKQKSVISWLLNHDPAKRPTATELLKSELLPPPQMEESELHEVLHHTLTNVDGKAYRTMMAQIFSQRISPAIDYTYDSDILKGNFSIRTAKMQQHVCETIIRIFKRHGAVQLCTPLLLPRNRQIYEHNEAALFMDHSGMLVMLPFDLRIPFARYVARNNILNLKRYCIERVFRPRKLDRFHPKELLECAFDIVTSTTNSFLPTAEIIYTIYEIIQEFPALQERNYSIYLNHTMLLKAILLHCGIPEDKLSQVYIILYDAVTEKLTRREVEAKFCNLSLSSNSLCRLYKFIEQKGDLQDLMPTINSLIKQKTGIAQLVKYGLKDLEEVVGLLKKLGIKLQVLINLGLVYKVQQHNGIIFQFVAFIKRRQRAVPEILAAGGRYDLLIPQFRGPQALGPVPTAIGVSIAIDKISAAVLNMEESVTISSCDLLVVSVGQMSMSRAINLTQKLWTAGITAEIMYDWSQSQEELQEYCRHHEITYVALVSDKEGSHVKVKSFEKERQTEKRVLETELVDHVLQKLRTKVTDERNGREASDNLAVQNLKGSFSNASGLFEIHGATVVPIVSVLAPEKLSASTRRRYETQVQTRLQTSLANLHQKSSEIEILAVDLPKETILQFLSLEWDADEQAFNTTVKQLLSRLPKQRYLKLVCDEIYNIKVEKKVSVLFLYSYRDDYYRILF

IC50 [nM]	Compound
< 100	COc1ncc(Cl)cc1S(=O)(=O)Nc1ccc(F)c(-n2cc(C)c3nc(N)ncc3c2=O)c1F [Example 21, N-(3-(2-amino-8-methyl-5-oxopirido[4,3-d]pyrimidin-6(5H)-yl)-2,4-difluorophenyl)-5-chloro-2-methoxypyridine-3-sulfonamide]
100 to 300	COc1ncc(Cl)cc1S(=O)(=O)Nc1ccc(F)c(-n2cc(CO)c3nc(N)ncc3c2=O)c1F [Example 23, N-(3-(2-amino-8-hydroxymethyl)-5-oxopirido[4,3-d]pyrimidin-6(5H)-2,4-difluorophenyl)-5-chloro-2-methoxypyridine-3-sulfonamide]
< 100	Nc1ncc2c(=O)n(-c3c(F)ccc(NS(=O)(=O)c4cc(Cl)ccc4Cl)c3F)ccc2n1 [Example 24, N-(3-(2-amino-5-oxopirido[4,3-d]pyrimidin-6(5H)-yl)-2,4-difluorophenyl)-2,5-dichlorobenzenesulfonamide]
100 to 300	Cc1nn(C)c(Cl)c1S(=O)(=O)Nc1ccc(F)c(-n2ccc3nc(N)ncc3c2=O)c1F [Example 30, N-(3-(2-amino-5-oxopirido[4,3-d]pyrimidin-6(5H)-yl)-2,4-difluorophenyl)-5-chloro-1,3-dimethyl-1H-pyrazole-4-sulfonamide]
100 to 300	Nc1ncc2c(=O)n(-c3c(F)ccc(NS(=O)(=O)c4ccc(Cl)s4)c3F)ccc2n1 [Example 31, N-(3-(2-amino-5-oxopirido[4,3-d]pyrimidin-6(5H)-yl)-2,4-difluorophenyl)-5-chlorothiophene-2-sulfonamide]
> 1000	COc1ncc(Cl)cc1S(=O)(=O)Nc1ccc(F)c(-n2cc(Br)c3nc(N)ncc3c2=O)c1F [Example 33, N-(3-(2-amino-8-bromo-5-oxopirido[4,3-d]pyrimidin-6(5H)-yl)-2,4-difluorophenyl)-5-chloro-2-methoxypyridine-3-sulfonamide]
< 100	Cc1nn(-c2c(F)ccc(NS(=O)(=O)c3cc(Cl)ccc3Cl)c2F)c(=O)c2cnc(N)nc12 [Example 34, N-(3-(2-amino-8-methyl-5-oxopyrimido[4,5-d]pyridazine-6(5H)-yl)-2,4-difluorophenyl)-2,5-dichlorobenzenesulfonamide]
> 1000	Cc1nn(-c2c(F)ccc(NS(=O)(=O)c3cn(C)nc3C(F)(F)F)c2F)c(=O)c2cnc(N)nc12 [Example 35, N-(3-(2-amino-8-methyl-5-oxopyrimido[4,5-d]pyridazine-6(5H)-yl)-2,4-difluorophenyl)-1-methyl-3-(trifluoromethyl)-1H-pyrazole-4-sulfonamide]
> 1000	Cc1nn(-c2c(F)ccc(NS(=O)(=O)c3cc(Cl)cc(CO)c3Cl)c2F)c(=O)c2cnc(N)nc12 [Example 37, N-(3-(2-amino-8-methyl-5-oxopyrimido[4,5-d]pyridazine-6(5H)-yl)-2,4-difluorophenyl)-2,5-dichloro-3-(hydroxymethyl)benzene sulfonamide]
100 to 300	CN1CN(c2c(F)ccc(NS(=O)(=O)c3cc(Cl)ccc3Cl)c2F)C(=O)c2cnc(N)nc21 [Example 39, N-(3-(7-amino-1-methyl-4-oxo-1,4-dihydropyrimido[4,5-d]pyrimidin-3(2H)-yl)-2,4-difluorophenyl)-2,5-dichlorobenzenesulfonamide]
100 to 300	COc1ncc(Cl)cc1S(=O)(=O)Nc1ccc(F)c(N2CN(C)c3nc(N)ncc3C2=O)c1F [Example 40, N-(3-(7-amino-1-methyl-4-oxo-1,4-dihydropyrimido[4,5-d]pyrimidin-3(2H)-yl)-2,4-difluorophenyl)-5-chloro-2-methoxypyridine-3-sulfonamide]
100 to 300	CN1CN(c2c(F)ccc(NS(=O)(=O)c3cccc4ccccc34)c2F)C(=O)c2cnc(N)nc21 [Example 41, N-(3-(7-amino-1-methyl-4-oxo-1,4-dihydropyrimido[4,5-d]pyrimidin-3(2H)-yl)-2,4-difluorophenyl)naphthalene-1-sulfonamide]
100 to 300	Cn1c(=O)n(-c2c(F)ccc(NS(=O)(=O)c3cc(Cl)ccc3Cl)c2F)c(=O)c2cnc(N)nc21 [Example 42, N-(3-(7-amino-1-methyl-2,4-dioxo-1,4-dihydropyrimido[4,5-d]pyrimidin-3(2H)-yl)-2,4-difluorophenyl)-2,5-dichlorobenzenesulfonamide]
< 100	COc1ncc(C#N)cc1S(=O)(=O)Nc1ccc(F)c(-n2c(=O)c3cnc(N)nc3n(C)c2=O)c1F [Example 47, N-(3-(7-amino-1-methyl-2,4-dioxo-1,4-dihydropyrimido[4,5-d]pyrimidin-3(2H)-yl)-2,4-difluorophenyl)-5-cyano-2-methoxypyridine-3-sulfonamide]
100 to 300	Cn1c(=O)n(-c2c(F)ccc(NS(=O)(=O)c3cc(C(F)(F)F)ccc3Cl)c2F)c(=O)c2cnc(N)nc21 [Example 49, N-(3-(7-amino-1-methyl-2,4-dioxo-1,2-dihydropyrimido[4,5-d]pyrimidin-3(4H)-yl)-2,4-difluorophenyl)-2-chloro-5-(trifluoromethyl)benzenesulfonamide]
< 100	Cn1c(=O)n(-c2c(F)ccc(NS(=O)(=O)c3ccc(Cl)s3)c2F)c(=O)c2cnc(N)nc21 [Example 50, N-(3-(7-amino-1-methyl-2,4-dioxo-1,4-dihydropyrimido[4,5-d]pyrimidin-3(2H)-yl)-2,4-difluorophenyl)-5-chlorothiophene-2-sulfonamide]
< 100	Cc1ccc(Cl)cc1S(=O)(=O)Nc1ccc(F)c(-n2c(=O)c3cnc(N)nc3n(C)c2=O)c1F [Example 52, N-(3-(7-amino-1-methyl-2,4-dioxo-1,4-dihydropyrimido[4,5-d]pyrimidin-3(2H)-yl)-2,4-difluorophenyl)-5-chloro-2-methylbenzenesulfonamide]
> 1000	CN1C(=O)Cc2cc(S(=O)(=O)Nc3ccc(F)c(-n4c(=O)c5cnc(N)nc5n(C)c4=O)c3F)ccc21 [Example 53, N-(3-(7-amino-1-methyl-2,4-dioxo-1,4-dihydropyrimido[4,5-d]pyrimidin-3(2H)-yl)-2,4-difluorophenyl)-1-methyl-2-oxoindoline-5-sulfonamide]
100 to 300	Cn1c(=O)n(-c2c(F)ccc(NS(=O)(=O)c3cc(F)ccc3F)c2F)c(=O)c2cnc(N)nc21 [Example 54, N-(3-(7-amino-1-methyl-2,4-dioxo-1,4-dihydropyrimido[4,5-d]pyrimidin-3(2H)-yl)-2,4-difluorophenyl)-2,5-difluorobenzenesulfonamide]
100 to 300	Cn1c(=O)n(-c2c(F)ccc(NS(=O)(=O)c3ccc(Cl)cc3Cl)c2F)c(=O)c2cnc(N)nc21 [Example 55, N-(3-(7-amino-1-methyl-2,4-dioxo-1,2-dihydropyrimido[4,5-d]pyrimidin-3(4H)-yl)-2,4-difluorophenyl)-2,4-dichlorobenzenesulfonamide]
> 1000	Cn1cc(S(=O)(=O)Nc2ccc(F)c(-n3c(=O)c4cnc(N)nc4n(C)c3=O)c2F)cn1 [Example 56, N-(3-(7-amino-1-methyl-2,4-dioxo-1,4-dihydropyrimido[4,5-d]pyrimidin-3(2H)-yl)-2,4-difluorophenyl)-1-methyl-1H-pyrazole-4-sulfonamide]
100 to 300	CNc1ncc2c(=O)n(-c3c(F)ccc(NS(=O)(=O)c4cc(Cl)cnc4OC)c3F)c(=O)n(C)c2n1 [Example 58, 5-chloro-N-(2,4-difluoro-3-(1-methyl-7-(methylamino)-2,4-dioxo-1,4-dihydropyrimido[4,5-d]pyrimidin-3(2H)-yl)phenyl)-2-methoxypyridine-3-sulfonamide]
100 to 300	Nc1ncc2c(n1)N(C1CC1)CN(c1c(F)ccc(NS(=O)(=O)c3cc(Cl)ccc3Cl)c1F)C2=O [Example 59, N-(3-(7-amino-1-cyclopropyl-4-oxo-1,4-dihydropyrimido[4,5-d]pyrimidin-3(2H)-yl)-2,4-difluorophenyl)-2,5-dichlorobenzenesulfonamide]
100 to 300	COc1ncc(Cl)cc1S(=O)(=O)Nc1ccc(F)c(N2CN(C3CC3)c3nc(N)ncc3C2=O)c1F [Example 60, N-(3-(7-amino-1-cyclopropyl-4-oxo-1,4-dihydropyrimido[4,5-d]pyrimidin-3(2H)-yl)-2,4-difluorophenyl)-5-chloro-2-methoxypyridine-3-sulfonamide]
100 to 300	Nc1ncc2c(n1)N(C1CC1)CN(c1c(F)ccc(NS(=O)(=O)c3cccc4ccccc34)c1F)C2=O [Example 61, N-(3-(7-amino-1-cyclopropyl-4-oxo-1,4-dihydropyrimido[4,5-d]pyrimidin-3(2H)-yl)-2,4-difluorophenyl)naphthalene-1-sulfonamide]
> 1000	Cc1nn(C)c(Cl)c1S(=O)(=O)Nc1ccc(F)c(N2CN(C3CC3)c3nc(N)ncc3C2=O)c1F [Example 62, N-(3-(7-amino-1-cyclopropyl-4-oxo-1,4-dihydropyrimido[4,5-d]pyrimidin-3(2H)-yl)-2,4-difluorophenyl)-5-chloro-1,3-dimethyl-1H-pyrazole-4-sulfonamide]
300 to 1000	Cc1nn(C)c(Cl)c1S(=O)(=O)Nc1ccc(F)c(-n2c(=O)c3cnc(N)nc3n(C3CC3)c2=O)c1F [Example 66, N-(3-(7-amino-1-cyclopropyl-2,4-dioxo-1,4-dihydropyrimido[4,5-d]pyrimidin-3(2H)-yl)-2,4-difluorophenyl)-5-chloro-1,3-dimethyl-1H-pyrazole-4-sulfonamide]
